Experimental data reported in patent US10023543B2 (CELGENE QUANTICEL RESEARCH, INC., priority 2014, dated 2018).
pIC50: −log10 of the molar value. Like-named read-outs stand apart in the source and are kept apart here.

Experiments:
THP-1 (AML) cells = experiment: LSD1 CD11b cellular assay (flow cytometry); type: cell-based; settings: Homo sapiens, THP-1, 96 h; for pIC50: CD11b expressing cells, 4 days, read-out: THP-1 IC50
Kasumi-1 = Kasumi-1 AML cell line proliferation assay (Cell-MTS assay); type: cell-based; settings: Homo sapiens, 168 hours
Description: Colorimetric cellular assay to assess the ability of LSD-1 small molecule inhibitors to effect the proliferation of the established AML cancer cell line Kasumi-1.
This Cell-MTS assay is a 7-day plate based colorimetric assay which quantifies the amount of newly generated NADH in the presence and absence of test compound. These NADH levels are used as a proxy for the quantification of cancer cell proliferation.
The established cancer cell line Kasumi-1 with a verified p53 mutation were purchased from American Type Culture Collection (ATCC) and routinely passaged according to ATCC published protocols. For routine assay these cells were seeded at a density of 20,000 cells per 96-well. […] At the end of this compound incubation period, 80 μl of media is removed and 20 μL of CellTiter 96® AQueous Non-Radioactive Cell Proliferation Assay solution (Promega) is added. The cells are incubated until the OD490 is >0.6. IC50 values are calculated using the IDBS XLfit software package and include background subtracted OD490 values and normalization to DMSO controls.

full-length human LSD1 = full-length human LSD1 (Homo sapiens (Human), UniProt O60341); experiment: In vitro enzyme inhibition assay LSD-1 (TR-FRET); type: biochemical; settings: H3K4me1-biotin peptide
Description: This assay determines the ability of a test compound to inhibit LSD1 demethylase activity.
The enzymatic assay of LSD1 activity is based on Time Resolved-Fluorescence Resonance Energy Transfer (TR-FRET) detection.
Enzymatic reaction is terminated within 15 minutes if 0.5 LSD1 enzyme is used in the plate.
The ability of the compounds disclosed herein to inhibit LSD1 activity was quantified and the respective IC50 value was determined.

Structure (SMILES)	pIC50 (THP-1 (AML) cells)	pIC50 (Kasumi-1)	IC50 (THP-1 (AML) cells; read-out: THP-1 IC50 (μM)) [µM]	pIC50 (full-length human LSD1)
Cc1ccc(-c2c(-c3ccc(C#N)cc3)nc(N3CCC(N)CC3)n(C)c2=O)cn1 [Example 4, 4-[2-(4-amino-piperidin-1-yl)-1-methyl-5-(6-methyl-pyridin-3-yl)-6-oxo-1,6-dihydro-pyrimidin-4-yl]-benzonitrile]	> 7.00	6.00 to 7.00	–	–
COc1ccc(-c2c(-c3ccc(C#N)cc3)nc(N3CCC(N)CC3)n(C)c2=O)cc1F [Example 5]	–	> 7.00	< 0.1	–
COc1ccc(-c2c(-c3ccc(C#N)c(F)c3)nc(N3CCC(N)CC3)n(C)c2=O)cc1 [Example 6, 4-[2-(4-amino-piperidin-1-yl)-5-(4-methoxy-phenyl)-1-methyl-6-oxo-1,6-dihydro-pyrimidin-4-yl]-2-fluoro-benzonitrile]	> 7.00	> 7.00	–	–
COc1ccc(-c2c(-c3ccc(C#N)c(F)c3)nc(N3CCC(N)CC3)n(C)c2=O)cn1 [Example 8, 4-[2-(4-amino-piperidin-1-yl)-5-(6-methoxy-pyridin-3-yl)-1-methyl-6-oxo-1,6-dihydro-pyrimidin-4-yl]-2-fluoro-benzonitrile]	> 7.00	> 7.00	–	–
Cc1ccc(-c2c(-c3ccc(C#N)c(F)c3)nc(N3CCC(N)CC3)n(C)c2=O)cn1 [Example 9]	> 7.00	> 7.00	–	–
Cn1cc2cc(-c3c(-c4ccc(C#N)cc4)nc(N4CCC(N)CC4)n(C)c3=O)ccc2n1 [Example 24, 4-[2-(4-aminopiperidyl)-1-methyl-5-(2-methyl(2H-indazol-5-yl))-6-oxohydropyrimidin-4-yl]benzenecarbonitrile]	> 7.00	> 7.00	–	–
Cn1c(N2CCC(N)CC2)nc(-c2ccc(C#N)c(F)c2)c(-c2cnn(CC(F)(F)F)c2)c1=O [Example 34, 4-{2-(4-amino-piperidin-1-yl)-1-methyl-6-oxo-5-[1-(2,2,2-trifluoro-ethyl)-1H-pyrazol-4-yl]-1,6-dihydro-pyrimidin-4-yl}-2-fluoro-benzonitrile]	> 7.00	> 7.00	–	–
Cn1c(N2CCC(N)CC2)nc(-c2ccc(C#N)c(F)c2)c(-c2ccc3c(cnn3C)c2)c1=O [Example 35, 4-[2-(4-amino-piperidin-1-yl)-1-methyl-5-(1-methyl-1H-indazol-5-yl)-6-oxo-1,6-dihydro-pyrimidin-4-yl]-2-fluoro-benzonitrile]	> 7.00	> 7.00	–	–
Cn1c(N2CCC(N)CC2)nc(-c2ccc(C#N)cc2)c(-c2cnn(CC(F)(F)F)c2)c1=O [Example 36, 4-{2-(4-amino-piperidin-1-yl)-1-methyl-6-oxo-5-[1-(2,2,2-trifluoro-ethyl)-1H-pyrazol-4-yl]-1,6-dihydro-pyrimidin-4-yl}-benzonitrile]	> 7.00	> 7.00	–	–
CNC1CCN(c2nc(-c3ccc(C#N)c(F)c3)c(-c3ccc4nn(C)cc4c3)c(=O)n2C)CC1 [Example 65, 2-fluoro-4-[1-methyl-2-(4-methylamino-piperidin-1-yl)-5-(2-methyl-2H-indazol-5-yl)-6-oxo-1,6-dihydro-pyrimidin-4-yl]-benzonitrile]	> 7.00	> 7.00	–	–
Cn1cc2cc(-c3c(-c4ccc(C#N)c(F)c4)nc(N4CCCNCC4)n(C)c3=O)ccc2n1 [Example 66, 4-[2-[1,4]diazepan-1-yl-1-methyl-5-(2-methyl-2H-indazol-5-yl)-6-oxo-1,6-dihydro-pyrimidin-4-yl]-2-fluoro-benzonitrile]	> 7.00	> 7.00	–	–
CN(C)C1CCN(c2nc(-c3ccc(C#N)c(F)c3)c(-c3ccc4nn(C)cc4c3)c(=O)n2C)CC1 [Example 71, 4-[2-(4-dimethylamino-piperidin-1-yl)-1-methyl-5-(2-methyl-2H-indazol-5-yl)-6-oxo-1,6-dihydro-pyrimidin-4-yl]-2-fluoro-benzonitrile]	> 7.00	> 7.00	–	–
Cn1c(N2CCC(N)CC2)nc(-c2ccc(C#N)c(F)c2)c(-c2ccc3[nH]ncc3c2)c1=O [Example 88, 4-[2-(4-aminopiperidin-1-yl)-5-(1H-indazol-5-yl)-1-methyl-6-oxopyrimidin-4-yl]-2-fluorobenzonitrile]	> 7.00	> 7.00	–	–
Cn1c(N2CCC(N)CC2)nc(-c2ccc(C#N)c(F)c2)c(-c2ccc(OCCO)cc2)c1=O [Example 96, 4-[2-(4-aminopiperidin-1-yl)-5-[4-(2-hydroxyethoxy)phenyl]-1-methyl-6-oxopyrimidin-4-yl]-2-fluorobenzonitrile]	> 7.00	–	–	> 7.00
